BindingDB's records for doi:10.1021/acsmedchemlett.9b00615 (University of Manchester, 2020)

Legend:
[1] = Inhibition of RET (unknown origin) expressed in […] cells assessed as reduction in cell viability incubated for 48 hrs by celltiter glo luminescence cell viability assay
[2] = Inhibition of KDR (unknown origin) expressed in […] cells assessed as reduction in cell viability incubated for 48 hrs by celltiter glo luminescence cell viability assay

CN(C)CCCNc1ccn2ncc(-c3ccc4c(c3)OCO4)c2n1
IC50 [1]: 4 µM | IC50 [2]: 9 µM
